# Results taken from patent US20110306636A1, “OXAZOLE PYRIDINE DERIVATIVES USEFUL AS S1P1 RECEPTOR AGONISTS” (Merck Serono SA, priority 2009, published 2011).
# Structures can show the parent of a compound that is named as a salt. Where two headings read alike, the source gives them in different places.
# Key:
# S1P1 [1] = biological target: T1, S1P1 (Homo sapiens, UniProt P21453); experiment: 35S-GTPγS binding assay, S1P1 membranes; type: biochemical; details: membranes from CHO cells expressing S1P1; read-out: S1P1/GTPG EC50
# Method: (§1) Membranes Preparation: Membranes were prepared from CHO cells expressing S1P1 or S1P3 for use in ligand and 35S-GTPγS binding studies. Cells were suspended in 50 mM TRIS, pH 7.4, 2 mM EDTA, 250 mM Sucrose (buffer A) and 1× Complete protease inhibitor cocktail (Roche), and disrupted at 4° C. by N2 decompression using a cell disruption bomb (Parr Instrument). Following centrifugation at 1000 RPM for 10 min at 4° C., the supernatant was diluted (2×) in buffer A and centrifuged again at 19000 RPM for 75 min at 4° C. The pellet was then suspended in 10 mM HEPES, pH 7.4, 1 mM EDTA, 250 mM Sucrose (Buffer B), and 1× Complete EDTA-free protease inhibitor cocktail and homogenized using a potter. Membranes were flash frozen in liquid N2 and stored at −80° C.
# Measurements of 35S-GTPγS Binding: Membranes (1 to 10 μg protein) prepared as described above, were incubated in 96-well Scintiplates (PerkinElmer) with test compounds diluted in DMSO, in 140 μl of 20 mM HEPES, pH 7.4, 10 mM MgCl2, 2 μg/well Saponin, 0.2% fatty acid free BSA (Assay buffer), 125 mM NaCl and 1.5 μM GDP. The assay was initiated with the addition of 60 μl of 1.5 nM [35S]-GTPγS (1100 Ci/mmol; GE Healthcare) in assay buffer. After 60 min incubation at 30° C. on a shaker, plates were centrifuged for 10 min at 2000 RPM. Supernatant was discarded and membrane bound radioactivity was measured on a PerkinElmer 1450 MicroBeta counter. Triplicate samples were averaged and expressed as % response relative to S1P activation in absence of compound (n=2).
# The “potency” or the “activity” of the compounds is determined by the EC50 values as evaluated in the above described 35S-GTPγS binding assay.
# S1P3 = S1P3 (Homo sapiens, UniProt Q99500); experiment: Receptor binding assay, [33P]sphingosine 1-phosphate competition, S1P3
# Method: as §1
# (§2) Receptor binding assay: [33P]sphingosine 1-phosphate (3000 Ci/mmol; American Radiolabeled Chemicals, Inc.) was added to test compounds in 20% DMSO by competition. Membranes and WGA SPA beads (GE Healthcare) were added to give a final volume of 100 μl in 96-well plates or 50 μl in 384-well plates with assay concentrations of 30 pM or 15 pM [33P]sphingosine 1-phosphate (respectively for S1P1 or S1P3), 50 mM HEPES, pH 7.5, 5 mM MgCl2, 100 mM NaCl, 0.4% fatty acid-free BSA, 1-5 μg/well of proteins in 96-well plates vs 0.6-1 μg/well of proteins in 384-well plates and 100 μg/well of WGA SPA beads in 96-well plates vs 75 μg/well of WGA SPA beads in 384-well plates. Binding was performed for 60 min at RT on a shaker and bound radioactivity was measured on a PerkinElmer 1450 MicroBeta counter. Triplicate samples were averaged and normalized as purcentage of inhibition relative to total binding (only DMSO in well) and non specific binding (1000-fold excess of unlabeled S1P). Binding data were analyzed using the GraphPad Prism program or Genedata software.
# S1P1 [2] = biological target: T1, S1P1; experiment: Receptor binding assay, [33P]sphingosine 1-phosphate competition, S1P1
# Method: as §1, §2
# [3] = biological target: T2, human S1P1 Receptor fused to the green fluorescent protein (EGFP) (Homo sapiens, UniProt P21453); experiment: Internalization of S1P1 in S1P1-U2OS cells by cell imaging analysis; type: cell-based; details: 1 hour incubation, 384-well
# T2 construct: host or cells: U2OS (human bone osteosarcoma epithelial cells), CMV promoter, geneticin selection
# Method: Cellular Functional Assays: Internalization of Sphingosine-1-Phosphate Receptor 1 (S1P1) in a Human Cell Line (U2OS) in a 384-Well Format Using a Cell Imaging Analysis.
# The S1P1 internalization assay was performed in 384 well plates (Corning® 384 black with clear bottom 3712) using S1P1-U2OS cells from BioImage (C039A), a human epithelial cell line (Human Bone Osteosarcoma Epithelial Cells). These cells expressed the human S1P1 Receptor fused to the green fluorescent protein (EGFP). A standard CMV promoter (cytomegalovirus promoter) controls the expression of S1P1-EGFP and continuous expression was maintained by addition of geneticin to the culture medium.
# S1P1 Receptor desensitization induced the internalization of the membrane-localized S1P1-EGFP fusion protein to endosomes, which can be monitored by cell imaging analysis.
# The cells are plated in low serum medium (Dulbecco's Modified Eagle Medium (DMEM) with Glutamax-1 and high glucose, 1% Penicillin/Streptomycin, 1% Fetal Calf Serum (FCS), 0.5 mg/ml Geneticin) overnight.
# The next day, S1P1-U2OS cells are incubated in 20 μl serum free medium (DMEM with Glutamax-1 and high glucose, 0.1% of fatty-acid free Bovin Serum Albumin (BSA), 10 mM, N′-2-Hydroxyethylpiperazine-N′-2 ethanesulphonic acid (HEPES) 1M) for 2 hours at 37° C./5% CO2.
# The cells are then treated with 4 μl compounds/agonists (6×/3% DMSO) for a total volume of 24 μl, and plates are incubated for 1 hour at 37° C./5% CO2.
# S1P1-U2OS cells are fixed with 25 μl Paraformaldehyde 8% and stained with Hoechst 33345 dye (1:1000) for 20 minutes.
# They were then washed 3 times with Phosphate Buffered Saline (PBS) and plates are sealed.
# The internalization of the receptor S1P1-EGFP is measured on Cellomics by calculating the “spot count per object” (“object” corresponds to nuclear and “spot” corresponds to S1P1-EGFP receptor). Internalization data were observed thanks to vHCS View and analyzed using Genedata® software.
# [4] = 96 well-plate, read-out: S1P3 binding IC50 (M) (96 well-plate)
# [5] = 96 well-plate, read-out: S1P1 binding IC50 (M) (96 well-plate)
# [6] = 384 well-plate, read-out: S1P3 binding IC50 (M) (384 well-plate)
# [7] = 384 well-plate, read-out: S1P1 binding IC50 (M) (384 well-plate)
# S1P3, sequence (Q99500 whole entry, species assumed): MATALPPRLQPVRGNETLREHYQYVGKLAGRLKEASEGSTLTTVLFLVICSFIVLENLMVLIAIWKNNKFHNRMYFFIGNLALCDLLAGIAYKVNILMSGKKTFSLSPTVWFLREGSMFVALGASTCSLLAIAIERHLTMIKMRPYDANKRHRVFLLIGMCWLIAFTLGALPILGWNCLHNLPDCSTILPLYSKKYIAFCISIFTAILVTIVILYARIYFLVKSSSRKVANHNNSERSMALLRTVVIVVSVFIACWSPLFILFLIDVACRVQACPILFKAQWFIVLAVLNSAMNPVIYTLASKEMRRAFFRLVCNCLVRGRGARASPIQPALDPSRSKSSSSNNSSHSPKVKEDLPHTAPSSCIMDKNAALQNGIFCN
# T2 sequence (P21453 with tags, fused parts or gaps): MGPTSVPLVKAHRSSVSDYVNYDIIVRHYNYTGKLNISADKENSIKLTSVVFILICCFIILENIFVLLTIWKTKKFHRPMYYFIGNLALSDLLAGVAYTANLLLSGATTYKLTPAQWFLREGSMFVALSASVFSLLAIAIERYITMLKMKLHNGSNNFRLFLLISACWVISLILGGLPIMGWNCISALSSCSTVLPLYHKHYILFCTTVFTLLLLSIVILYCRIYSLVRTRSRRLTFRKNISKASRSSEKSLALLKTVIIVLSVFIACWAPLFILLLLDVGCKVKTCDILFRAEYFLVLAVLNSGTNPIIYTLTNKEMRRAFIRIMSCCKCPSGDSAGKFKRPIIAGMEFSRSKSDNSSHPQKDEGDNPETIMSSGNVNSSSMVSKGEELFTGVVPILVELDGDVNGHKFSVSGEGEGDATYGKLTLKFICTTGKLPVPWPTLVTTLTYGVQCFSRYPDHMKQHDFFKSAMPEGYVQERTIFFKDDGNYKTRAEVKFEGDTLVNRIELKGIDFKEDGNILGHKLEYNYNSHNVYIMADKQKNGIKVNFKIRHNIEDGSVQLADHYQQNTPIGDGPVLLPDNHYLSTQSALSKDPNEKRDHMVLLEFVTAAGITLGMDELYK
# T1 sequence (P21453 whole entry, species assumed): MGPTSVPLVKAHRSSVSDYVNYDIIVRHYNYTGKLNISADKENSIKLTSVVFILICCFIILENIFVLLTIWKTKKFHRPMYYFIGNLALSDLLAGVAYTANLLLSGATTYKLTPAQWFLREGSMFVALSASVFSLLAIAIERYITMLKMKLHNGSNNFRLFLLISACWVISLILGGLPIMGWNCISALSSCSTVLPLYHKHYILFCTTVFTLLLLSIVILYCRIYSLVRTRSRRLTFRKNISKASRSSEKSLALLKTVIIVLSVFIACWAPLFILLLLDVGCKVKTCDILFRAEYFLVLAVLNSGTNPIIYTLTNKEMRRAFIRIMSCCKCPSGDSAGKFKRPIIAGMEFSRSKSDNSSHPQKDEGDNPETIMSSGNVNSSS
EC50 (S1P1 [1]),IC50 (S1P3; [4]),IC50 (S1P1 [2]; [5]),EC50 [3],IC50 (S1P3; [6]),IC50 (S1P1 [2]; [7]),SMILES
72.8 nM,,,,,,"COCc1cc(-c2nc(-c3cnc(N)cn3)no2)ccc1-c1ccccc1C [Example 16, 5-{5-[2-(methoxymethyl)-2′-methylbiphenyl-4-yl]-1,2,4-oxadiazol-3-yl}pyrazin-2-amine]"
688 nM,,,,,,"COCc1cc(-c2nc(-c3ccc(N(C)C)nc3)no2)ccc1-c1ccccc1C [Example 30, 5-{5-[2-(methoxymethyl)-2′-methylbiphenyl-4-yl]-1,2,4-oxadiazol-3-yl}-N,N-dimethylpyridin-2-amine]"
140 nM,,,,,,"COCc1cc(-c2nc(-c3ccnc(NCC(=O)OC(C)(C)C)c3)no2)ccc1-c1ccccc1C [Example 10, tert-butyl N-(4-{5-[2-(methoxymethyl)-2′-methylbiphenyl-4-yl]-1,2,4-oxadiazol-3-yl}pyridin-2-yl)glycinate]"
39.9 nM,,,,,,"COCc1cc(-c2nc(-c3ccc(C(=O)O)nc3)no2)ccc1-c1ccccc1C [Example 25, 5-{5-[2-(methoxymethyl)-2′-methylbiphenyl-4-yl]-1,2,4-oxadiazol-3-yl}pyridine-2-carboxylic acid, hydrochloride salt]"
29.1 nM,,,,,,"COCc1cc(-c2nc(-c3cnc(NCC(=O)O)c(Cl)c3)no2)ccc1-c1ccccc1C [Example 38, N-(3-chloro-5-{5-[2-(methoxymethyl)-2′-methylbiphenyl-4-yl]-1,2,4-oxadiazol-3-yl}pyridin-2-yl)glycine, hydrochloride salt]"
74.1 nM,,,,,,"COCc1cc(-c2nc(-c3ccc(OC)nc3)no2)ccc1-c1ccccc1C [Example 23, 2-methoxy-5-{5-[2-(methoxymethyl)-2′-methylbiphenyl-4-yl]-1,2,4-oxadiazol-3-yl}pyridine]"
134 nM,,,,,,"COCc1cc(-c2nc(-c3ccc(NCCC(=O)OC(C)(C)C)nc3)no2)ccc1-c1ccccc1C [Example 1, tert-butyl N-(5-{5-[2-(methoxymethyl)-2′-methylbiphenyl-4-yl]-1,2,4-oxadiazol-3-yl}pyridin-2-yl)-beta-alaninate]"
9.99 nM,,,,,,"COCc1cc(-c2nc(-c3ccc(NCCCC(=O)O)nc3)no2)ccc1-c1ccccc1C [Example 8, 4-[(5-{5-[2-(methoxymethyl)-2′-methylbiphenyl-4-yl]-1,2,4-oxadiazol-3-yl}pyridin-2-yl)amino]butanoic acid, hydrochloride salt]"
,3.1e-06 M,6.38e-09 M,99.2 nM,,,"COCc1cc(-c2nc(-c3cnc(NCCC(=O)O)c(C)c3)no2)ccc1-c1ccccc1F [Example 53, N-(5-{5-[2′-fluoro-2-(methoxymethyl)biphenyl-4-yl]-1,2,4-oxadiazol-3-yl}-3-methylpyridin-2-yl)-beta-alanine, hydrochloride salt]"
,1.37e-06 M,3.15e-09 M,28.7 nM,,,"COCc1cc(-c2nc(-c3cnc(NCCC(=O)O)c(Cl)c3)no2)ccc1-c1ccccc1F [Example 48, N-(3-chloro-5-{5-[2′-fluoro-2-(methoxymethyl)biphenyl-4-yl]-1,2,4-oxadiazol-3-yl}pyridin-2-yl)-beta-alanine, hydrochloride salt]"
,1.7e-07 M,2.6e-09 M,9.2 nM,1.62e-07 M,3.19e-09 M,"COCc1cc(-c2nc(-c3ccnc(CNCC(=O)O)c3)no2)ccc1-c1ccccc1C [Example 69, 2-((4-(5-(2-(methoxymethyl)-2′-methylbiphenyl-4-yl)-1,2,4-oxadiazol-3-yl)pyridin-2-yl)methylamino)acetic acid]"
,7.21e-06 M,3.31e-09 M,59.3 nM,,4.42e-08 M,"COCc1cc(-c2nc(-c3cnc(N)c(Cl)c3)no2)ccc1-c1ccccc1F [Example 46, 3-chloro-5-{5-[2′-fluoro-2-(methoxymethyl)biphenyl-4-yl]-1,2,4-oxadiazol-3-yl}pyridin-2-amine]"
,5.82e-06 M,1.58e-09 M,17.3 nM,9.45e-06 M,1.98e-08 M,"COCc1cc(-c2nc(-c3cnc(NCCC(=O)O)c(Cl)c3)no2)ccc1-c1ccccc1Cl [Example 50, N-(3-chloro-5-{5-[2′-chloro-2-(methoxymethyl)biphenyl-4-yl]-1,2,4-oxadiazol-3-yl}pyridin-2-yl)-beta-alanine, hydrochloride salt]"
,3.62e-06 M,1.65e-09 M,23.1 nM,3.25e-06 M,1.82e-08 M,"COCc1cc(-c2nc(-c3ccc(N)nc3)no2)ccc1-c1ccccc1F [Example 52, 5-{5-[2′-fluoro-2-(methoxymethyl)biphenyl-4-yl]-1,2,4-oxadiazol-3-yl}pyridin-2-amine]"
,3.87e-06 M,5.4e-09 M,50 nM,,1.73e-08 M,"O=C(O)CCNc1ncc(-c2noc(-c3ccc(-c4ccccc4F)c(C(F)(F)F)c3)n2)cc1Cl [Example 63, N-(3-chloro-5-{5-[2′-fluoro-2-(trifluoromethyl)biphenyl-4-yl]-1,2,4-oxadiazol-3-yl}pyridin-2-yl)-beta-alanine]"
,8.55e-07 M,1.79e-09 M,10.5 nM,1.08e-06 M,1.18e-08 M,"COCc1cc(-c2nc(-c3ccnc(CN(C)CC(=O)O)c3)no2)ccc1-c1ccccc1C [Example 68, 2-(((4-(5-(2-(methoxymethyl)-2′-methylbiphenyl-4-yl)-1,2,4-oxadiazol-3-yl)pyridin-2-yl)methyl)(methyl)amino)acetic acid]"
,9.32e-07 M,2.01e-09 M,16.4 nM,,,"COCc1cc(-c2nc(-c3cnc(NCCCC(=O)O)c(Cl)c3)no2)ccc1-c1ccccc1F [Example 54, 4-[(3-chloro-5-{5-[2′-fluoro-2-(methoxymethyl)biphenyl-4-yl]-1,2,4-oxadiazol-3-yl}pyridin-2-yl)amino]butanoic acid, hydrochloride salt]"
,6.53e-06 M,2.83e-09 M,19.5 nM,3e-06 M,4.34e-09 M,"COCc1cc(-c2nc(-c3cnc(Cl)c(F)c3)no2)ccc1-c1ccccc1C [Example 60, 2-chloro-3-fluoro-5-{5-[2-(methoxymethyl)-2′-methylbiphenyl-4-yl]-1,2,4-oxadiazol-3-yl}pyridine]"
